Test results as given in PMC8401465, “In Vitro Testing of Alternative Synthetic and Natural Antiparasitic Compounds against the Monogenean Sparicotyle chrysophrii” (Pathogens, 2021).
Where two headings read alike, the source gives them in different places.

What was measured:
[1] = system: Sparicotyle chrysophrii adults; assay: microbe, parasite or virus in culture; conditions: for LC20 (95% CI), toxicity level for adult S. chrysophrii: 20% mortality; for LC50: read-out: LC50 (95% CI), toxicity level for adult S. chrysophrii; for LC80 (95% CI), toxicity level for adult S. chrysophrii: 80% mortality; for b (SE), slope of dose–response model / e (SE), midpoint of dose–response model: Weibull type 2, c = 0, d = 1, mortality at 4 h post-exposure; for fold less toxic for S. chrysophrii than eucalyptol and garlicin 80%: comparison with eucalyptol and garlicin 80%; for fold lower toxicity for S. chrysophrii than curcumin: comparison with curcumin
Protocol: Subsequently, the monogeneans (n = 6, in triplicate) were exposed to a range of seven concentrations tailored according to each compound’s activity observed in preliminary tests. The range for each compound was scaled down to an appropriate order of magnitude so that each compound reached 100% mortality at 4 h post-exposure (Table 1).
For the dose–response curve fitting, the drc package for R (v4.0.4) was used. An appropriate nonlinear regression model was selected between log-logistic and Weibull type models, based on the Akaike information criterion (AIC) and lack-of-fit test criteria through the use of mselect function. The best scoring model was Weibull type 2 model (asymmetrical) with lower and upper limits fixed to 0 and 1, respectively, as mortality in all assays reached 100%. […] Model parameters and estimated lethal doses (20%, 50%, and 80%) were calculated with standard errors and 95% confidence intervals, based on the delta method, respectively, and adjusted for simultaneous inference through multcomp package. Dose–response curves were visualised using ggplot2 library.

[2] = system: Vibrio harveyi; assay: Bactericidal activity (MTT), Vibrio harveyi; assay type: cell-based; conditions: for bactericidal activity against V. harveyi: synthetic compounds, at increased concentrations; for inhibition at 0.1 µM / inhibition at 1 µM / inhibition at 10 µM: Vibrio harveyi; for antimicrobial activity against V. harveyi: p < 0.05
Protocol: (§1) Two bacterial fish pathogens, Vibrio harveyi and V. anguillarum were used to test the bactericidal activity of the target compounds, being previously isolated and identified as described in [65]. Lab strains were maintained at −20 °C in Tryptone Soy Broth (TSB, Difco Laboratories, Inc., Detroit, MI, USA) supplemented with 1% (w/v) NaCl (TSB1) and 50% (v/v) glycerol. […] Bacteria in TSB medium were then cultured at the same temperature with continuous shaking (100 rpm) for 24 h. Exponentially grown bacteria were resuspended in sterile PBS and adjusted to the concentration of 10^8 colony forming units (cfu)/mL. Each target compound (20 μL; concentrations 0.1, 1, and 10 µM) was added (in triplicates) to the wells of a flat-bottom 96-well plate, except for the positive control that consisted of 0.5% DMSO in PBS. Aliquots of 20 μL of the previously cultured bacteria were added, and the plate was incubated for 5 h at 25 °C. […] The plate was then centrifuged (4500 rpm, 10 min) and the precipitate dissolved in 200 μL of DMSO. The solution (100 μL) from each well was transferred to another flat-bottom 96-well plate. The absorbance of the dissolved formazan was measured at 570 nm. Bactericidal activity was expressed as percentage of nonviable bacteria, calculated as the difference between absorbance of surviving bacteria compared to the absorbance of bacteria in positive controls (100%).

[3] = system: Vibrio anguillarum; assay: Bactericidal activity (MTT), Vibrio anguillarum; assay type: cell-based; conditions: for antibacterial activity against V. anguillarum: among the natural compounds; for antibacterial activity against V. anguillarum / antimicrobial activity against V. anguillarum: p < 0.05; for inhibition at 0.1 µM / inhibition at 1 µM / inhibition at 10 µM: Vibrio anguillarum
Protocol: as §1

[4] = system: Sparicotyle chrysophrii adults; assay: microbe, parasite or virus in culture; conditions: for mortality at 1000 µM: Sparicotyle chrysophryii
Protocol: Firstly, the adult monogeneans were exposed to a range of four concentrations of tested compounds encompassing the full dose–response range; each compound stock at 10 mM was serially diluted 10 (1 mM), 10^2 (0.1 mM), 10^3 (0.01 mM), and 10^4 (1 µM) times. […] Ten monogeneans per well (in triplicate) were added to 2 mL sterile seawater (SW) in 6-well plates, checked at the stereomicroscope for visible signs of mechanical damage, and exposed to selected concentrations in the dark at room temperature (Table 1). The number of live/dead parasites was recorded under the stereomicroscope at 1, 4, 12, and 24 h post-exposure. S. chrysophrii was considered to be alive if it performed any type of movement autonomously or 5 s after gentle probing with a dissection needle. Negative controls comprised the seawater with up to 0.5% of DMSO in total volume, the latter used as a solvent for each compound.

[5] = 50% mortality, 4 h post-exposure
[6] = 0.1 µM, 5 h at 25 °C, read-out: Bactericidal activity (%)
[7] = 1 µM, 5 h at 25 °C, read-out: Bactericidal activity (%)
[8] = 10 µM, 5 h at 25 °C, read-out: Bactericidal activity (%)
[9] = 5 h, read-out: Bactericidal activity (%)

Molecule	LC20 (95% CI), toxicity level for adult S. chrysophrii ([1]; 4 h post-exposure)	LC50 [1, 5]	LC80 (95% CI), toxicity level for adult S. chrysophrii ([1]; 4 h post-exposure)	b (SE), slope of dose–response model [1]	e (SE), midpoint of dose–response model [1]	inhibition [2, 6]	inhibition [2, 7]	inhibition [2, 8]	inhibition [3, 6]	inhibition [3, 7]	inhibition [3, 8]	potency / effect against V. anguillarum as judged in the discussion [3]	inhibition at 0.1 µM [2, 6]	inhibition at 1 µM [2, 7]	inhibition at 10 µM [2, 8]	inhibition at 0.1 µM [3, 6]	inhibition at 1 µM [3, 7]	inhibition at 10 µM [3, 8]	antimicrobial activity against V. harveyi ([2]; 10 µM)	also measured
1R-Camphor	0.71 (0.53–0.89) mM	910 µM	1.1 (0.94–1.26) mM	4.54 (0.91)	0.99 (0.05)	-23.6 ± 2.6%	7.7 ± 10.7%	9.3 ± 7.4%	-38.8 ± 22%	-27.8 ± 19%	-17.4 ± 9.3%	–	–	–	–	–	–	–	–	fold less toxic for S. chrysophrii than eucalyptol and garlicin 80% [1]: approximately 1.2
CC(C)=C[C@@H]1[C@@H](C(=O)O)C1(C)C (relative stereo) [(+)-trans-Chrysanthemic acid]	0.58 (0.43–0.74) mM	840 µM	1.1 (0.79–1.41) mM	3.12 (0.69)	0.94 (0.07)	-47.7 ± 5.9%	-25.4 ± 14.6%	13.2 ± 6.5%	-1.4 ± 13%	8.15 ± 16.3%	32 ± 9%	the effect was observed only against V. anguillarum	–	–	–	–	–	–	–	fold less toxic for S. chrysophrii than eucalyptol and garlicin 80% [1]: approximately 1.2; antibacterial activity against V. anguillarum [3]: strongest antibacterial activity
Oc1c(Cl)cc(Cl)cc1Sc1cc(Cl)cc(Cl)c1O [Bithionate sodium, 2,2′-sulfanediylbis(4,6-dichlorophenolate), reference compound]	0.003 (0.002–0.005) mM	5 to 10 µM	0.01 (0.01–0.01) mM	1.93 (0.36)	0.01 (0.001)	-8.8 ± 1.8%	3.5 ± 11.6%	40 ± 0.7%	4.9 ± 11.8%	49.2 ± 11.6%	96.4 ± 1.7%	–	–	–	–	–	–	–	–	bactericidal activity against V. harveyi [2]: significant bactericidal activity; antimicrobial activity against V. anguillarum ([3]; 10 µM): best antimicrobial activity
O=c1ccc2ccccc2o1 [Coumarin]	–	–	–	–	–	–	–	–	–	–	–	–	-33.4 ± 3.9%	-21.2 ± 13.3%	-1.9 ± 7.6%	1.5 ± 8.38%	13.2 ± 13.4%	17.3 ± 5%	–	mortality at 1000 µM ([4]; 24 h): 100%; antibacterial activity against V. anguillarum [3]: strongest antibacterial activity
C=CCSCC=C [Diallyl sulphide]	–	–	–	–	–	–	–	–	–	–	–	–	-36.6 ± 6.8%	-36.4 ± 7.9%	-1.6 ± 0.7%	-11.3 ± 24.8%	-5.8 ± 11.7%	46.8 ± 4%	–	mortality at 1000 µM ([4]; 24 h): 100%; antimicrobial activity against V. anguillarum ([3]; 10 µM): best antimicrobial activity
CC12CCC(CC1)C(C)(C)O2 [Eucalyptol]	0.5 (0.38–0.63) mM	–	0.83 (0.71–0.94) mM	3.99 (0.7)	0.74 (0.03)	–	–	–	–	–	–	ineffective against V. anguillarum	-2.7 ± 8.7%	-1.9 ± 12.3%	50.3 ± 6.8%	-31.7 ± 156%	-34.1 ± 10.5%	23.6 ± 3.1%	significant antimicrobial activity	LC50 ([1]; Sparicotyle chrysophryii, 4 h): 670 µM; fold lower toxicity for S. chrysophrii than curcumin [1]: approximately 3; potency / effect against V. harveyi as judged in the discussion [2]: highest anti-Vibrio harveyi effect among tested natural compounds
C=CCSSCC=C [Garlicin 80%]	0.4 (0.27–0.53) mM	600 µM	0.81 (0.66–0.95) mM	2.79 (0.49)	0.68 (0.04)	20.9 ± 19.9%	28.7 ± 6.2%	42 ± 1.3%	-110 ± 84.2%	-46 ± 17.2%	-52.1 ± 31.4%	ineffective against V. anguillarum	–	–	–	–	–	–	significant antimicrobial activity	fold lower toxicity for S. chrysophrii than curcumin [1]: approximately 3; potency / effect against V. harveyi as judged in the discussion [2]: highest anti-Vibrio harveyi effect among tested natural compounds
C[C@H]1C(=O)O[C@@H]2CCN3CC=C(COC(=O)[C@](C)(O)[C@]1(C)O)[C@H]23 [Monocrotaline]	–	–	–	–	–	–	–	–	–	–	–	–	–	–	–	–	–	–	significant antimicrobial activity	mortality at 1000 µM ([4]; 1 h): 100%; inhibition at 0.1 µM [2, 9]: -4.9 ± 24.9%; inhibition at 1 µM [2, 9]: 18.2 ± 10.9%; inhibition at 10 µM [2, 9]: 40.1 ± 4.1%; inhibition at 0.1 µM [3, 9]: -73 ± 56.1%; inhibition at 1 µM [3, 9]: -46.9 ± 32%; inhibition at 10 µM [3, 9]: 17.9 ± 0.6%
CCN(CC)C(=O)c1cccc(C)c1 [N,N-diethyl-M-toluamide, reference compound]	–	–	–	–	–	–	–	–	–	–	–	–	–	–	–	–	–	–	–	mortality ([4]; highest concentration (1 mM), already after 1 h): 100%; inhibition ([2]; 0.1 µM): -0.9 ± 8.7%; inhibition ([2]; 1 µM): 4.5 ± 16.7%; inhibition ([2]; 10 µM): 13.7 ± 0.6%; bactericidal activity against V. harveyi [2]: significant bactericidal activity; inhibition ([3]; 0.1 µM): -61.9 ± 29%; inhibition ([3]; 1 µM): -28.5 ± 24.1%; inhibition ([3]; 10 µM): 9.1 ± 8.5%
